# Experimental data from US10537541B2, “Treatment of focal segmental glomerular sclerosis (FSGS) using therapeutically effective oral doses of 10-nitro-9(E)-octadec-9-enoic acid” (Complexa, Inc., priority 2015, dated 2020).
# What was measured:
# healthy male subjects = assay: Pharmacokinetic interaction study in healthy males: safety and tolerability; assay type: in vivo, human; conditions: healthy males
# Procedure: Safety and tolerability was evaluated throughout the study. The timing of discharge was determined by the Investigator or designee based on safety and tolerability assessment. On dosing days, subjects remained in the research unit for a minimum of 1 h after dosing prior to discharge. On Day 4, on the first day of 10-nitro-9(E)-octadec-9-enoic acid dosing, subjects remained in the unit for 4 to 6 h after dosing prior to discharge to assess safety and tolerability.
# Safety and PK assessments were evaluated throughout the study. During the in-house portion of the study, urine was collected over the 24-h period on Day 2 and Day 12.
# Safety was evaluated by physical examinations; adverse events (AEs); vital signs (blood pressure, heart rate, respiratory rate); clinical laboratory values (hematology, biochemistry, and urinalysis), specifically, serum Mg and CPK and electrocardiograms (ECGs).
# Triplicate ECGs were obtained just prior to the start of dosing on Day 1 and single ECGs were obtained at all other time points. The average of the 3 ECG interval measurements at the pre-dose time point was considered as baseline. All 12-Lead ECGs were obtained after the subject has rested in a fully supine position for at least 10 minutes. There were no clinically significant abnormalities reported on any electrocardiogram (ECG) parameter. There were no QT/QTcF interval prolongations observed during the study.
# [1] = tested on: deoxycorticosterone acetate (DOCA)/salt-induced model of FSGS; assay: DOCA salt study: urinary isoprostane and tetranor-PGDM by LC-MS; assay type: in vivo, mice (129/sv strain); conditions: DOCA/salt mice
# Procedure: (§1) Induction of model: Male mice (129/sv strain) were purchased from Taconic Labs. The animals were uninephrectomized (Unx) at 6 weeks of age by the vendor and shipped one week after surgery. At 2 weeks post Unx, a DOCA or placebo pellet (21-day release pellets, 50 mg/pellet, Innovative Research of America, Sarasota, Fla.) was implanted s.c. All mice were then placed on a semisynthetic diet which contained a moderate fat content and a low phytoestrogen/anti-oxidant level, which approximates a normal human diet (4). A second DOCA or placebo pellet was implanted three weeks later.
# (§2) Treatment: Mice were treated with placebo, 10-nitro-9(E)-octadec-9-enoic acid at a dose of 2.5 and 12.5 mg/kg, or enalapril (standard of care) for 4 weeks by oral gavage starting 2 weeks after the first DOCA implantation. One percent NaCl in tap water was given to each group except the sham control group. Body weight was measured weekly, and doses were readjusted based on the current body weight. Urine and blood samples were collected prior to treatment and at week 2 and 4 of treatment. Mice were terminated at week 4. Data is presented as the mean+SEM for the number of animals listed in each group.
# Isoprostanes are a unique series of prostaglandin-like compounds formed in vivo via a non-enzymatic mechanism involving the free radical-initiated peroxidation of arachidonic acid. It has been shown that 8-iso-PGF2a (15-F2t-isoprostane) is the isoprostane that correlates best with increasing oxidative stress. Therefore, to assess the effect of treatment on oxidative stress, this isoform was measured using LC-MS. Also measured was tetranor-PGDM, a urinary metabolite of prostaglandin D2. […] On the other hand, elevated tetranor-PGDM was lowered with treatment of 10-nitro-9(E)-octadec-9-enoic acid and enalapril at the end time point (FIG. 18).
# [2] = tested on: deoxycorticosterone acetate (DOCA)/salt-induced model of FSGS; assay: DOCA salt study: histological assessment of kidney; assay type: in vivo, mice (129/sv strain); conditions: DOCA/salt mice, 4 weeks
# Procedure: as §1, §2
# Histological Assessment: Formalin fixed, paraffin embedded kidneys were sectioned at 3 microns and stained with hematoxylin and eosin (H&E), periodic acid-Schiff (PAS) and Masson's Trichrome for histological analysis. Slides were blindly evaluated by an experienced pathology investigator. Glomerular and tubular pathology, interstitial inflammation and interstitial fibrosis were semi-quantitatively scored on a scale of 0-4 as follows: 0=normal; 1=mild; 2=moderate; 3=marked; 4=severe.
# Glomerular hypertrophy was evaluated by measuring glomerular area and expressed as a mean value of 50 glomeruli per kidney. Glomerular hypertrophy is an important marker for diabetic and hypertensive-mediated chronic kidney disease. […] This finding is consistent with unchanged gene expression profile for podocyte markers (Table 2), and seems reasonable given that the disease was relatively modest.
# obese male subjects = assay: Multiple ascending dose study in obese males: serum biomarkers (leptin, MCP-1, IL-6, triglycerides, cholesterol); assay type: in vivo, human
# From the text: Biomarker characterization included the following laboratory parameters: serum leptin, FBG, total cholesterol, HDL and LDL, triglycerides, HR, PR, QRS interval and T-wave morphology measured on ECGs extracted from cardiac Holter monitoring, measurements of serum RBP4, CRP, PAI-1, measurements of serum cytokines: IL-6, TNFα, MCP-1, measurements of the following biomarkers in whole blood by quantitative reverse transcriptase polymerase chain reaction (qRT-PCR) including: HO-1, NQ01, GCLM, HSP70 (HSP1A HSP1B, HSPA6), HSP22 (HSPB8) and HPS40 (DNAJA4), urine RBP4, MCP-1 and KIM-1, urinary exosomes by qRT-PCR including: HO-1, NQ01, GCLM, HSP70 (HSP1A HSP1B, HSPA6), HSP22 (HSPB8) and HPS40 (DNAJA4), gene and protein expression analyses by DNAseq, RNAseq, and western blots in PBMCs and ratio of EETs to DHETs in serum and urine.
# This was a single-center, randomized, double-blind, placebo-controlled study of sequential multiple ascending doses of oral CXA-10 in obese male subjects. Eligible subjects included obese males age 19 to 57 years and BMI 27.0 to 39.5 kg/m^2. CXA-10 and placebo were provided as solutions in hard shell capsules. Three (3) cohorts of subjects were dosed once daily with CXA-10 for 14 days. The doses administered in this study were 25, 150 and 450 mg. Subjects enrolled in the highest dose level (450 mg) were administered 600 mg on day 1 then 450 mg for 13 days. This cohort (cohort 3) was given the option to receive an additional 450 mg dose on day 15 with a high fat (50%) breakfast.
# Full PK profiles were obtained on Days 1 and 14. For subjects in cohort 3 who participate in the additional procedures on Day 15, full PK profiles were obtained on Days 1, 14, and 15. An abbreviated PK profile could also be obtained for the highest dose cohort only on one additional day. The actual day of PK sampling coincided with the additional day of Holter monitoring for the highest dose cohort. Subjects returned on Day 21 and Day 28 for PK, safety, and biomarker assessments.
compound,measurement,setting,value
"CCCCCCCC/C(=C\CCCCCCCC(=O)O)[N+](=O)[O-] [CXA-10, 10-nitro-9(E)-octadec-9-enoic acid]",GI AEs related to 10-nitro-9(E)-octadec-9-enoic acid,healthy male subjects; 150 mg daily with food,not observed
same,serum creatinine levels,healthy male subjects; 150 mg daily,no changes
same,24-hour urine creatinine excretion measurements,"healthy male subjects; 150 mg daily, Day 2 versus Day 12",nor any relevant changes
same,urinary tetranor-PGDM,[1]; end time point,lowered
same,"urinary 8-iso-PGF2a, compared with the high dose or enalapril","[1]; low dose 2.5 mg/kg, not statistically significant",trended to have a greater reduction
same,glomerulosclerosis: average scores and percent of glomerular damage (sclerosis),[2]; both doses (2.5 and 12.5 mg/kg p.o. QD),significantly reduced
same,"glomerular hypertrophy (glomerular area, mean of 50 glomeruli per kidney)",[2]; high dose 12.5 mg/kg p.o. QD,did not have an effect
same,tubulointerstitial lesions,[2]; high dose 12.5 mg/kg p.o. QD,only slightly
same,"glomerular hypertrophy (glomerular area, mean of 50 glomeruli per kidney)",[2]; low dose 2.5 mg/kg p.o. QD,reduced
same,tubulointerstitial lesions,[2]; low dose 2.5 mg/kg p.o. QD,improved
same,"Cholesterol concentrations, change from baseline",obese male subjects; 150 mg,trend to decrease from baseline
same,MCP-1 mean change from baseline compared to placebo,obese male subjects; 150 mg,significantly different compared to placebo
same,Triglycerides LS Mean Difference (CI),"obese male subjects; 150 mg versus placebo, Day 8",-45.4 mg/dL
same,MCP-1 LS Mean Difference (CI),"obese male subjects; 150 mg versus placebo, Day 14 (0-10 hr)","−228.5 (−387.2, −69.77) pg/mL"
same,Triglycerides LS Mean Difference (CI),"obese male subjects; 150 mg versus placebo, Day 15",-59.6 mg/dL
same,decrease of leptin concentrations from baseline,"obese male subjects; 150 mg, day 14, placebo increased 35%",21.5%
same,"IL-6 concentrations, change from baseline","obese male subjects; 150 mg, days 7 and 14",trend to decrease from baseline
same,Leptin % change from baseline,"obese male subjects; Cohort 2 150 mg (n = 10), Day 14",−21.5%
same,Leptin LS Mean Difference (CI) versus placebo,"obese male subjects; Cohort 2 150 mg versus placebo, Day 14","−56.5 (−140.5, 27.5) pg/mL"
